Experimental data taken from patent US6221865A, “Inhibitors of protein isoprenyl transferases” (priority 1998, dated 2001).
Where a name gives a salt, the structure may show the parent alone. Read-outs that look alike come from different tables or passages of the source. Values belong to the molecule of their own block, whether it stands above or below them.

Target: T1, protein farnesyltransferase (Rattus norvegicus, UniProt Q02293+Q04631)
T1 construct: The enzyme is purified according to Reiss, Y., et al., Cell, 62: 81-88 (1990), utilizing steps one through three; from tissue; host or cells: rat brain
Experiment: Inhibition of farnesyltransferase (scintillation proximity assay, rat brain enzyme, biotin-K Ras B fragment substrate)
Assay type: biochemical
Conditions: for % inhibition of farnesyltransferase at 1 × 10^-6 M / inhibition at 1 µM: 1 × 10^-6 M (Table 2); for % inhibition of farnesyltransferase at 1 × 10^-5 M: 1 × 10^-5 M (Table 1); for inhibition at 1 µM: read-out: % inhibition of farnesyltransferase at 1 × 10^-6 M
Outline: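 Enzyme from rat brain, partly purified (steps one to three), assayed by SPA kit using 0.1 mM final biotin-K Ras B peptide as prenyl acceptor rather than biotin-lamin. Activity given as percent inhibition.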

[1] = read-out: % inhibition of farnesyltransferase at 1 × 10^-7 M, 1 × 10^-7 M (Table 3)
[2] = read-out: % inhibition at 0.1 μM (*), Table 6, * = 0.1 μM (footnote), title prints 0.1 mM

T1 sequence (Q02293 whole entry, one chain of several): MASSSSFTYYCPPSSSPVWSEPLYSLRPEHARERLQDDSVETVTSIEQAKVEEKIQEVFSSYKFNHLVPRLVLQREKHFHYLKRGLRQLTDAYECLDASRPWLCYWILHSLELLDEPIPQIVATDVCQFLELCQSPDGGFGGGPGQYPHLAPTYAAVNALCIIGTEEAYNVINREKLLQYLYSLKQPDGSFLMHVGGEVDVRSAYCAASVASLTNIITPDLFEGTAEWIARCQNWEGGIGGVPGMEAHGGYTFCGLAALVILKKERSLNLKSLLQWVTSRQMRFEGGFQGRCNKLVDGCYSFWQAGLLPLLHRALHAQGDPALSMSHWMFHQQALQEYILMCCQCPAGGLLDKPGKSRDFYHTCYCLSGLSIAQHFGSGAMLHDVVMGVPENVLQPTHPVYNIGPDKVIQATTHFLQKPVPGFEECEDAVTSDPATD

- % inhibition of farnesyltransferase at 1 × 10^-6 M: 90%
SMILES: CSCC[C@H](NC(=O)c1ccc(CN(C)CC(O)CO)cc1-c1ccccc1C)C(=O)O (stereo partly drawn) [Example 719]

- % inhibition of farnesyltransferase at 1 × 10^-5 M: 71%
SMILES: CSCC[C@H](NC(=O)c1ccc(CNc2ccc(I)cc2)cc1-c1ccccc1)C(=O)O [Example 688]

- % inhibition of farnesyltransferase at 1 × 10^-6 M: 95%
SMILES: CSCC[C@H](NC(=O)c1ccc(NC(=O)c2cnccc2C(F)(F)F)cc1-c1ccccc1C)C(=O)O [Example 481]

- % inhibition of farnesyltransferase at 1 × 10^-6 M: 77%
SMILES: CSCC[C@H](NC(=O)c1cc(Cc2ccccc2)c(COCc2ccco2)cc1-c1ccccc1C)C(=O)O [Example 924]

- % inhibition of farnesyltransferase at 1 × 10^-6 M: 85%
SMILES: CSCC[C@H](NC(=O)c1ccc(CS(=O)(=O)Cc2ccccc2)cc1-c1ccccc1C)C(=O)O [Example 555]

- % inhibition of farnesyltransferase at 1 × 10^-7 M (1 × 10^-7 M (Table 3)): 71%
SMILES: CCSC[C@H](CC1CCCCC1)N(Cc1ccc(C(=O)N[C@@H](CCSC)C(=O)O)c(-c2ccccc2C)c1)S(=O)(=O)c1ccccc1 [Example 951]

- % inhibition of farnesyltransferase at 1 × 10^-5 M: 69%
SMILES: CSCC[C@H](NC(=O)c1ccc(CNc2cc(C)on2)cc1-c1ccccc1)C(=O)O [Example 372]

- % inhibition of farnesyltransferase at 1 × 10^-6 M: 77%
SMILES: CSCC[C@H](NC(=O)c1ccc(CN(CC(c2ccccc2)c2ccccc2)c2ccccc2)cc1-c1ccccc1C)C(=O)O [Example 509]

- % inhibition of farnesyltransferase at 1 × 10^-6 M: 96%
SMILES: CSCC[C@H](NC(=O)c1ccc(CN(CCc2ccccc2)c2ccccc2)cc1-c1ccccc1C)C(=O)O [Example 507]

- inhibition at 0.01 µM (read-out: % inhibition of farnesyltransferase at 1 × 10^-8 M, 1 × 10^-8 M (Table 4)): 69%
SMILES: CSCC[C@H](NC(=O)c1ccc(CN2CCC[C@H]2COc2ccccc2)cc1-c1ccccc1C)C(=O)O [Example 991, N-[4-(2-phenoxymethylpyrrolidin-1-ylmethyl)-2-(2-methylphenyl)benzoyl]methionine]

- inhibition at 0.1 µM [1]: 92%
SMILES: CSCC[C@H](NC(=O)c1ccc(CCc2ccc(Oc3ccccc3N)cc2)cc1-c1ccccc1C)C(=O)O [Example 857, N-[4-(2-(4-(2-aminophenoxy)phenyl)ethyl)-2-(2-methylphenyl)benzoyl]methionine]

- % inhibition of farnesyltransferase at 1 × 10^-6 M: 73%
SMILES: CSCCC(NC(=O)c1ccc(CNC(CO)c2ccccc2)cc1-c1ccccc1)C(=O)O (stereo not drawn) [Example 658]

- inhibition at 1 µM: 88%
SMILES: CSCC[C@H](NC(=O)c1ccc(C[C@H]2CC[C@@H](c3ccccc3)CC2)cc1-c1ccccc1C)C(=O)O [Example 790, N-[4-syn-(4-phenylcyclohexylmethyl)-2-(2-methylphenyl)benzoyl]methionine lithium salt]

SMILES: CSCC[C@H](NC(=O)c1ccc(OCCCc2ccccc2)cc1-c1ccccc1C)C(=O)[O-].[Li+] [Example 879]
- % inhibition of farnesyltransferase at 1 × 10^-6 M: 95%

- % inhibition of farnesyltransferase at 1 × 10^-6 M: 48%
SMILES: CSCC[C@H](NC(=O)c1ccc(CNc2ccccc2F)cc1-c1ccccc1)C(=O)O [Example 642]

- inhibition at 0.1 µM [2]: 94%
SMILES: CSCC[C@H](NC(=O)c1ccc(CN2CCC[C@H]2COc2cc(F)cc(F)c2)cc1-c1ccccc1C)C(=O)O [Example 1115, N-[4-(2(S)-(3,5-difluorolphenoxy)methylpyffolidin-1-ylmethyl)-2-(2-methylphenyl)benzoyl]methionine]

- % inhibition of farnesyltransferase at 1 × 10^-6 M: 98%
SMILES: CSCC[C@H](NC(=O)c1ccc(NC(=O)C2=C(C(F)(F)F)C=CNC2)cc1-c1ccccc1)C(=O)O [Example 283]

- % inhibition of farnesyltransferase at 1 × 10^-6 M: 87%
SMILES: CCc1nnc(NCc2ccc(C(=O)N[C@@H](CCSC)C(=O)O)c(-c3ccccc3C)c2)s1 [Example 723]

- % inhibition of farnesyltransferase at 1 × 10^-6 M: 96%
SMILES: CSCC[C@H](NC(=O)c1ccc(CN(CCc2ccccc2)Cc2ccccc2)cc1-c1ccccc1C)C(=O)O [Example 513]

SMILES: CSCC[C@H](NC(=O)c1ccc(COCc2ccc(-c3ccc(C=O)cc3)o2)cc1-c1ccccc1C)C(=O)[O-].[Li+] [Example 448]
- % inhibition of farnesyltransferase at 1 × 10^-7 M (1 × 10^-7 M (Table 3)): 92%

- inhibition at 0.1 µM [2]: 92%
SMILES: CSCC[C@H](NC(=O)c1ccc(CN2CC(F)(F)C[C@H]2COCC2CCCCC2)cc1-c1ccccc1C)C(=O)O [Example 1117, N-[4-(2(S)-cyclohexylmethyloxymethyl-4,4-difluoropyrrolidin-1-ylmethyl)-2-(2-methylphenyl)benzoyl]methionine]

- inhibition at 1 µM: 90%
SMILES: CSCC[C@H](NC(=O)c1ccc(CN2CCC[C@H]2COCc2ccccc2)cc1-c1ccccc1C)C(=O)O [Example 824, N-[4-(2-benzyloxymethylpyrrolidin-1-ylmethyl)-2-(2-methylphenyl)benzoyl]methionine]

- % inhibition of farnesyltransferase at 1 × 10^-6 M: 94%
SMILES: CSCC[C@H](NC(=O)c1ccc(COCc2ccoc2)cc1-c1ccccc1C)C(=O)O [Example 530]

- % inhibition of farnesyltransferase at 1 × 10^-6 M: 93%
SMILES: CSCC[C@H](NC(=O)c1ccc(COC2CCN(Cc3ccccc3)C2)cc1-c1ccccc1C)C(=O)O (stereo partly drawn) [Example 987]

- % inhibition at 0.1 μM (*) (Table 6, * = 0.1 μM (footnote), title prints 0.1 mM): 69%
SMILES: CCCCC(OCc1ccc(C(=O)N[C@@H](CCSC)C(=O)[O-])c(-c2ccccc2C)c1)C1CCNCC1.[Li+] (stereo partly drawn) [Example 1288]

- % inhibition of farnesyltransferase at 1 × 10^-7 M (1 × 10^-7 M (Table 3)): 68%
SMILES: CSCC[C@H](NC(=O)c1ccc(CSc2ncnc3[nH]cnc23)cc1-c1ccccc1C)C(=O)O [Example 747]

- inhibition at 1 µM: 90%
SMILES: Cc1ccccc1-c1cc(CN(C(C)C)C(C)(C)Cc2ccccc2)ccc1C(=O)N[C@@H](CCS(C)(=O)=O)C(=O)O [Example 321]

- % inhibition of farnesyltransferase at 1 × 10^-8 M (1 × 10^-8 M (Table 4)): 80%
SMILES: CCCCS(=O)(=O)N(Cc1ccc(C(=O)N[C@@H](CCSC)C(=O)O)c(-c2ccccc2C)c1)CC1CCCCC1 [Example 996]

SMILES: CSCC[C@H](NC(=O)c1ccc(CCc2cccc(Oc3ccccc3)c2)cc1-c1ccccc1C)C(=O)O [Example 459, N-[4-(2-(3-phenoxyphenyl)ethyl)-2-(2-methylphenyl)benzoyl]methionine lithium salt]
- inhibition at 0.1 µM [1]: 92%

- inhibition at 1 µM: 74%
SMILES: CSCC[C@H](NC(=O)c1ccc(CN2CCNCC2)cc1-c1ccccc1)C(=O)O [Example 290, (4-piperazinylmethyl-2-phenylbenzoyl)methionine]

- % inhibition of farnesyltransferase at 1 × 10^-7 M (1 × 10^-7 M (Table 3)): 98%
SMILES: CCS(=O)(=O)C[C@H](CC1CCCCC1)NCc1ccc(C(=O)N[C@@H](CCS(C)(=O)=O)C(=O)O)c(-c2ccccc2C)c1 [Example 621]

- % inhibition of farnesyltransferase at 1 × 10^-5 M: 44%
SMILES: CSCC[C@H](NC(=O)c1ccc(NC(=O)CCN)cc1-c1ccccc1)C(=O)O [Example 750]

- % inhibition of farnesyltransferase at 1 × 10^-6 M: 78%
SMILES: CSCC[C@H](NC(=O)c1cc(Cc2ccccc2)c(COCc2ccccc2)cc1-c1ccccc1C)C(=O)O [Example 923]

- % inhibition of farnesyltransferase at 1 × 10^-7 M (1 × 10^-7 M (Table 3)): 96%
SMILES: CSCC[C@H](NC(=O)c1ccc(CSc2nnc[nH]2)cc1-c1ccccc1C)C(=O)O [Example 735]

- % inhibition of farnesyltransferase at 1 × 10^-6 M: 82%
SMILES: CSCC[C@H](NC(=O)c1ccc(CN[C@H](/C=C\CC(C)C)CC2CCCCC2)cc1-c1ccccc1)C(=O)O [Example 666]

SMILES: CSCC[C@H](NC(=O)c1ccc(COC(Cc2ccccc2)c2cncs2)cc1-c1ccccc1C)C(=O)[O-].[Li+] (stereo partly drawn) [Example 828]
- % inhibition of farnesyltransferase at 1 × 10^-8 M (1 × 10^-8 M (Table 4)): 87%

SMILES: CSCC[C@H](NC(=O)c1ccc(COCc2ccc(-c3ccc(C(C)=O)cc3)o2)cc1-c1ccccc1C)C(=O)[O-].[Li+] [Example 449]
- % inhibition of farnesyltransferase at 1 × 10^-7 M (1 × 10^-7 M (Table 3)): 91%

- % inhibition of farnesyltransferase at 1 × 10^-7 M (1 × 10^-7 M (Table 3)): 89%
SMILES: CSCC[C@H](NC(=O)c1ccc(CSc2ccc(C)cc2C)cc1-c1ccccc1C)C(=O)O [Example 741]

- % inhibition of farnesyltransferase at 1 × 10^-6 M: 90%
SMILES: CSCC[C@H](NC(=O)c1ccc(COC2CCN(Cc3ccccc3)CC2)cc1-c1ccccc1C)C(=O)O [Example 807]
